Experimental data: US4552765A, “Aletheine derivatives” (Santen Pharmaceutical Co., Ltd., priority 1982, dated 1985)

Test system: CCl4-induced liver damage
Assay: effect on CCl4-induced liver damage in rats (serum transaminase s-GOT and s-GPT)
Type: in vivo, Male wistar rats
Conditions: for serum transaminase s-GPT / serum transaminase s-GOT / s-GPT (inhibitory %) / s-GOT (inhibitory %): 300 mg/Kg orally, 60 min before CCl4 0.25 ml/Kg i.p., 24 h after CCl4; for serum transaminase s-GPT / serum transaminase s-GOT: mean ± standard deviation; for effect on liver damage: result in words
Description: Generally, the effect of a certain compound on liver damage is examined by administering it to experimental animals before a liver damage inducer such as carbon tetrachloride, thioacetamide, bromobenzene, paracetamol, D-galactosamine, etc. Carbon tetrachloride (CCl4)-induced liver damage is commonly used as the model. The mechanism to induce liver damage is presumed as follows (Biochemical Pharmacology 21, 49 (1972), ibid., 25, 2163 (1976)). In this invention, the effect of the compounds were examined against CCl4 -induced liver damage using serum transaminase activities (s-GOT and s-GPT) as a parameter. Male wistar rats (6 animals per group), weighing about 170-200 g, fasted for 17 hours, were used in the experiments. Test compounds were given orally at a dose of 300 mg/Kg, and 60 minutes later CCl4 was administered intraperitoneally at a dose of 0.25 ml/Kg (5 ml/Kg as a 5%(v/v)solution in olive oil). As the control, olive oil only was given intraperitoneally at a dose of 5 ml/Kg. All animals were killed 24 hours after CCl4 administration and their s-GOT and s-GPT activities were determined.

[1] = Table I, vs control 11460 ± 1490
[2] = Table II, vs control 6400 ± 2590
[3] = Table II, vs control 13950 ± 4030

`CC(=O)SCCNC(=O)CCNC(=O)OCc1ccccc1` [compound No. 1, N-(2-Acetylthioethyl)-3-(benzyloxycarbonylamino)propionamide] was tested, and the “serum transaminase s-GPT” value (Table I, control 5100 ± 405) was 2590 ± 731 Karmen unit/ml, the “serum transaminase s-GOT” value (Table I, control 11460 ± 1490) was 5250 ± 1330 Karmen unit/ml and the “s-GPT (inhibitory %)” value (Table I, vs control 5100 ± 405) was 49%. For the same molecule, the “s-GOT (inhibitory %)” value [1] was 54%.

For `CCC(=O)SCCNC(=O)CCNC(=O)OCc1ccccc1` [compound No. 2, 3-(Benzyloxycarbonylamino)-N-(2-propionylthioethyl)-propionamide], the “serum transaminase s-GPT” value (Table I, control 5100 ± 405) was 1720 ± 613 Karmen unit/ml, the “serum transaminase s-GOT” value (Table I, control 11460 ± 1490) was 3550 ± 1150 Karmen unit/ml and the “s-GPT (inhibitory %)” value (Table I, vs control 5100 ± 405) was 66%. The “s-GOT (inhibitory %)” value [1] was 69%.

In the case of `O=C(CCNC(=O)c1ccccc1)NCCSC(=O)c1ccccc1` [compound No. 3, 3-Benzoylamino-N-(2-benzoylthioethyl)propionamide], the “serum transaminase s-GPT” value (Table I, control 5100 ± 405) is reported as 2440 ± 960 Karmen unit/ml, the “serum transaminase s-GOT” value (Table I, control 11460 ± 1490) is reported as 6150 ± 2990 Karmen unit/ml and the “s-GPT (inhibitory %)” value (Table I, vs control 5100 ± 405) is reported as 52%. The “s-GOT (inhibitory %)” value [1] was 46%.

With `Cl.NCCC(=O)NCCS` [compound No. 4, 3-amino-N-(2-mercaptoethyl)propionamide hydrochloride] the “serum transaminase s-GPT” value (Table II, control 6400 ± 2590) was 1990 ± 1010 Karmen unit/ml, the “serum transaminase s-GOT” value (Table II, control 13950 ± 4030) was 4690 ± 2490 Karmen unit/ml and the “s-GPT (inhibitory %)” value [2] was 69%. The “s-GOT (inhibitory %)” value [3] was 67%.

With `O=C(CCNC(=O)OCc1ccccc1)NCCS` [compound No. 5, 3-(benzyloxycarbonylamino)-N-(2-mercaptoethyl)propionamide] the “serum transaminase s-GPT” value (Table II, control 6400 ± 2590) was 1900 ± 1640 Karmen unit/ml, the “serum transaminase s-GOT” value (Table II, control 13950 ± 4030) was 4450 ± 4430 Karmen unit/ml and the “s-GPT (inhibitory %)” value [2] was 71%. The “s-GOT (inhibitory %)” value [3] was 69% and the “effect on liver damage” value was “superior effect on liver-damage”.

In the case of `CC(=O)NCCC(=O)NCCSC(C)=O` [compound No. 6, 3acetylamino-N--(2acetylthioethyl)propionamide], the “serum transaminase s-GPT” value (Table II, control 6400 ± 2590) is reported as 1730 ± 800 Karmen unit/ml, the “serum transaminase s-GOT” value (Table II, control 13950 ± 4030) is reported as 3370 ± 1360 Karmen unit/ml and the “s-GPT (inhibitory %)” value [2] is reported as 73%. The “s-GOT (inhibitory %)” value [3] was 76% and the “effect on liver damage” value was “superior effect on liver-damage”.

For `NCCC(=O)NCCS` [β-aletheine, N-β-Alanyl-2-mercaptoethylamine], the “effect on liver damage” value was “excellent suppressive effect on liver damage”.
